Results from patent US20210108180A1, “ELECTROCONDUCTIVE DECELLULARIZED EXTRACELLULAR MATRIX COMPOSITIONS FOR PREPARATION OF ENGINEERED TISSUES AND RELATED METHODS” (University of Washington, priority 2019, published 2021).
Where two headings read alike, the source gives them in different places.

How the values were obtained:
[1] = tested on: cardiac tissues bioprinted using dECM-rGO bioink (hiPSC-derived cardiomyocytes and HS27A stromal cells); assay: Cisapride cardiotoxicity dose response, FluoVolt imaging, tissues printed with dECM-rGO bioink; type: cell-based; conditions: Homo sapiens, HS-27A
Description: (§1) Tissues and support structures were bioprinted using a commercially available dual-extruder pneumatic bioprinter (Allevi BioBot 1). Five pairs of polycaprolactone (PCL) posts 1 mm in diameter, 5 mm tall, and 10 mm apart were printed in each well of a standard 6-well plate. An approximately 2 mm thick layer of NOA 83H resin (Norland Optical Adhesives) was then deposited onto the bottom of each well and cured by a 30 min exposure to UV light. Plates containing anchored posts were then sterilized by immersion in 70% v/v ethanol and subsequent UV light exposure. Sacrificial wells 12 mm×5 mm×1 mm (length×width×depth) were then printed around each post pair using 40% w/v Pluronic F-127, followed by approximately 50 μL of cell-laden hydrogel bioinks with the same cell densities as used in the EHT platform (20×10^6 hiPSC-derived cardiomyocytes/mL and 5×10^6 HS27A stromal cells/mL). Completed plates were then incubated at 37° C. and 5% CO2 for approximately 60 min, after which 5 mL of RPMI/B-27 with insulin (supplemented with Y-27632 dihydrochloride ROCK inhibitor and 1% penicillin/streptomycin) was added to each well. After 24 hrs, the media was replaced with fresh RPMI/B-27 with insulin and media changes were conducted every other day until tissues were used for drug screening. Exemplary cardiac tissues were bioprinted using dECM and dECM-rGO bioinks disclosed herein and cultured for 14 and 35 days. At these time points, tissues were washed with warm PBS before being incubated in medium containing a 1000X dilution of stock FluoVolt for 1 hr at 37° C., after which tissues were washed twice with warm Tyrode's buffer and incubated in Tyrode's containing 0.01, 0.1, 1, 5, 10, 50, 100, and 1000 nM cisapride (Sigma-Aldrich) dissolved in dimethyl sulfoxide (DMSO) for 45 mins. A group of tissues were also incubated in Tyrode's containing no cisapride, but an equivalent volume of DMSO (1 μL DMSO/mL Tyrode's). Functional response of these tissues to administered drug was assessed using FluoVolt dye in conjunction with live-tissue imaging as described above. Change in beat interval (ABI) was determined by measuring that duration of elapsed time between individual beats (the beat interval) and calculating the difference in this interval from one beat to the next. APD90 values were calculated as described above. Best-fit dose response curves were calculated using GraphPad Prism software. Drug concentration values were first transformed to a log scale and APD90 or ABI values were normalized such that the lowest value was set at 0% and the largest value at 100%. Finally, the normalized data was fit to a non-linear dose response curve using a least squares fit.

[2] = tested on: cardiac tissues bioprinted using dECM bioink (hiPSC-derived cardiomyocytes and HS27A stromal cells); assay: Cisapride cardiotoxicity dose response, FluoVolt imaging, tissues printed with dECM bioink; type: cell-based; conditions: Homo sapiens, HS-27A
Description: as §1

[3] = reported ETPC range; cited from earlier work
[4] = 336 h, Day 14 of culture, change in beat interval, read-out: IC50 (ΔBI)
[5] = Day 35 of culture, change in beat interval, read-out: IC50 (ΔBI)
[6] = Day 35 of culture, read-out: IC50 (APD90)

`COc1cc(N)c(Cl)cc1C(=O)NC1CCN(CCCOc2ccc(F)cc2)CC1OC` (stereo not drawn) [cisapride] gave an IC50 [1, 4] of 8.6 ± 1.2 nM, an IC50 ([1]; Day 14 of culture, 45 min cisapride, read-out: IC50 (APD90)) of 2.5 ± 1.3 nM and an IC50 [1, 5] of 3.1 ± 1.3 nM. It also gave an IC50 [1, 6] of 1.8 ± 1.4 nM, an IC50 [2, 4] of 73.4 ± 1.4 nM and an IC50 ([2]; 336 h, Day 14 of culture, read-out: IC50 (APD90)) of 61.8 ± 1.4 nM. For the same molecule, the IC50 [2, 5] was 7.3 ± 1.2 nM, the IC50 [2, 6] was 2 ± 1.3 nM and the “effective therapeutic plasma concentration (ETPC)” value [3] was 2.6 to 4.9 nM.
